Data published in patent US20250325543A1, “EGFR TKIs FOR USE IN THE TREATMENT OF NON-SMALL LUNG CANCER” (ASTRAZENECA AB, priority 2020, published 2025).

Assays:
[1] = tested on: patients with advanced mutation-positive EGFR (Ex19del or L858R) NSCLC; settings: cited from earlier work
[2] = tested on: stage IB-IIIA EGFRm NSCLC patients; assay: ADAURA phase 3 double-blind, randomized, placebo-controlled study of adjuvant AZD9291 after complete tumour resection; type: in vivo, human; settings: for DFS HR (95% CI) / reduction in the risk of disease recurrence or death: osimertinib vs placebo
Protocol: Adjuvant chemotherapy should have consisted of a platinum based doublet given for a maximum of 4 cycles.
Patients were randomised 1:1, to receive either AZD9291 or placebo. […] Patients were randomised within 10 weeks following complete surgical resection if adjuvant chemotherapy was not administered, within 26 weeks following surgery if adjuvant chemotherapy was administered.
Accounting for patients who are found to have wild type EGFR, sample attrition and 10% screen fail rate for other reasons, it was estimated that approximately 3200 patients would be screened to randomize approximately 700 patients. Approximately 60% of patients were recruited from Asia and 40% from non-Asian countries. The proportion of patients randomized with stage 1B cancer was approximately 30% and the proportion of patients randomized with stage II-IIIA cancer was approximately 70%. Patients were stratified at randomization by stage (IB vs II vs IIIA), mutation type (Ex19Del/L858R either alone or in combination with other EGFR mutations) as confirmed by a central laboratory using a tissue based test, and race (Asian/non-Asian).
Patients undergo regular CT scan (chest and abdomen including liver and adrenal glands) with additional anatomy imaging, as indicated by signs and symptoms of the patient, for disease recurrence. Disease free survival (DFS) shall be measured from the date of randomization until date of disease recurrence or death (from any cause) in the absence of recurrence by investigational site assessment.
Male and female patients aged 18 years and over (patients from Japan/Taiwan aged at least 20 years) with histologically confirmed diagnosis of primary non-squamous non-small cell carcinoma of the lung, with complete surgical resection of the primary tumour, and who were classified post-operatively as stage IB, II or IIIA on the basis of pathologic criteria were eligible for this study (stage IB patients were excluded in Japan). Recruitment of patients with stage IB disease was closed when approximately 210 (30%) had been randomized and recruitment of patients with stage II-IIIA disease was closed when approximately […] (70%) had been randomized. Patients were confirmed to have a tumour that harbours one of the most common EGFR mutations known to be associated with EGFR-TKI sensitivity (Ex19Del; L858R) either alone or in combination with other EGFR mutations as confirmed by a central test.
Treatment with AZD9291 (80 mg once daily) or placebo commenced following randomization. Patients will continue on randomised treatment until recurrence of disease, treatment discontinuation criterion is met or treatment is completed.
AZD9291 (80 mg orally, once daily) or matching placebo, in accordance with the randomization schedule, was administered.
Disease-free survival is the primary endpoint in this study and is defined as the time from the date of randomization until the date of disease recurrence or death from any cause in the absence of disease recurrence. Disease recurrence is defined as evidence of disease recurrence on CT or MRI scan and/or pathological disease on biopsy by investigational site assessment. The primary population is the stage II/IIIA patients.
DFS rate at 2, 3, 4 and 5 years is defined as the proportion of patients alive and disease free at 2, 3, 4 and 5 years, respectively, estimated from Kaplan Meier plots of the primary endpoint of DFS at the time of the primary analysis.
DFS in the subset of patients with stage II-IIIA cancer will be analysed using a log rank test stratified by stage (II, IIIA), mutation type (Ex19Del, L858R either alone or in combination with other EGFR mutations) and race (Asian, Non-Asian) for the generation of the p-value and using the Breslow approach for handling ties.

[3] = patients with CNS metastases on a baseline brain scan, vs standard EGFR-TKIs
[4] = Stage IB/II/IIIA (overall population)
[5] = Stage IB/II/IIIA (overall population), listed as osimertinib
[6] = Stage II/IIIA patient population, immature OS (5% maturity)

For `C=CC(=O)Nc1cc(Nc2nccc(-c3cn(C)c4ccccc34)n2)c(OC)cc1N(C)CCN(C)C` [Osimertinib, N-(2-{2-dimethylaminoethyl-methylamino}-4-methoxy-5-{[4-(1-methylindol-3-yl)pyrimidin-2-yl]amino}phenyl) prop-2-enamide], the median overall survival ([1]; first-line therapy) is listed as 38.6 months, the “median progression free survival (PFS)” value ([1]; first-line therapy) is listed as 18.9 months and the “events of CNS progression, % patients” value ([1]; irrespective of known or treated CNS metastases at trial entry) is listed as 6%. For the same compound, the “hazard ratio for death” value ([1]; osimertinib vs comparator group) was 0.80, the “PFS hazard ratio (HR)” value ([1]; osimertinib vs erlotinib or gefitinib) was 0.46 and the “median CNS PFS” value ([1]; patients with CNS metastases on a baseline brain scan) was “not reached”. The “CNS PFS HR” value [1, 3] was 0.48, the “reduction in the risk of CNS progression” value [1, 3] was 52% and the “2 year DFS rate, % (95% CI)” value ([2]; Adjuvant chemotherapy received) was 88.3%. The “2 year DFS rate, % (95% CI)” value ([2]; No adjuvant chemotherapy) was 89.2%, the “2 year DFS rate, % (95% CI)” value ([2]; Stage IB) was 87 (77, 93) % and the “Median DFS, months (95% CI)” value ([2]; Stage IB) was “NR (NC, NC)”. For the same compound, the “2 year DFS rate, % (95% CI)” value [2, 4] was 88.8%, the “2 year DFS rate, % (95% CI)” value [2, 5] was 89% and the “2 year DFS rate, % (95% CI)” value ([2]; Stage II) was 91 (82, 95)^ %. For the same compound, the “Median DFS, months (95% CI)” value ([2]; Stage II) was “NR (NC, NC)”, the “2 year DFS rate, % (95% CI)” value ([2]; Stage II-IIIA) was 89.5% and the “deaths (% of patients)” value [2, 6] was 3%. The “deaths (number of patients)” value [2, 6] was 8 deaths, the “2 year DFS rate, % (95% CI)” value ([2]; Stage IIIA) was 88 (79, 94)^ % and the “Median DFS, months (95% CI)” value ([2]; Stage IIIA) was 38.8 (38.6, NC)^ months. For the same compound, the “overall survival (in words)” value ([2]; immature OS (5% maturity)) was “trend towards survival favouring osimertinib”, the “DFS HR (95% CI)” value ([2]; Stage IB) was 0.50 (0.27, 0.94) and the “DFS HR (95% CI)” value [2, 4] was 0.21 (0.16, 0.28);. The “DFS HR (95% CI)” value [2, 5] was 0.21, the “DFS HR (95% CI)” value ([2]; Stage II) was 0.17 (0.08, 0.31) and the “DFS HR (95% CI)” value ([2]; Stage II-IIIA) was 0.17 (0.12, 0.23);. The “DFS HR (95% CI)” value ([2]; Stage II-IIIA, listed as osimertinib) was 0.17 (0.12, 0.23), the “DFS HR (95% CI)” value ([2]; Stage IIIA) was 0.12 (0.07, 0.20) and the “DFS HR (95% CI)” value ([2]; adjuvant chemotherapy received) was 0.17. For the same compound, the “DFS HR (95% CI)” value ([2]; no adjuvant chemotherapy) was 0.17, the “reduction in the risk of disease recurrence or death” value ([2]; overall population) was 79% and the “reduction in the risk of disease recurrence or death” value ([2]; primary population of stage II/IIIA patients) was 83%. The “improvement in DFS (in words)” value ([2]; regardless of whether patients received prior adjuvant chemotherapy) was “consistent improvement in DFS” and the “improvement in disease free survival (DFS) (in words)” value ([2]; stage IB/II/IIIA EGFRm NSCLC, adjuvant setting) was “statistically significant and clinically meaningful improvement”.
